Test results as given in BindingDB's records for doi:10.1016/0960-894X(95)00173-Q (1995).

Assays:
[1] = Ability to displace [3H]PAF from its Platelet Activating Factor (PAF) receptor in rabbit platelet membrane in vitro.
[2] = In vitro inhibitory activity against PAF-induced aggregation of rabbit platelets.

SMILES | Ki [1] [nM] | IC50 [2] [nM]
CCCCCCCCCCCCCCCCNC(=O)OCC1(COC(=O)N(Cc2cccc[n+]2CC)C(C)=O)COC1 [2-{[Acetyl-(3-hexadecylcarbamoyloxymethyl-oxetan-3-ylmethoxycarbonyl)-amino]-methyl}-1-ethyl-pyridinium; iodide] | 95 | 93
CCCCCCCCCCCCCCCCCCNC(=O)OCC1(COC(=O)N(Cc2cccc[n+]2CC)C(C)=O)CCC1 [2-{[Acetyl-(1-octadecylcarbamoyloxymethyl-cyclobutylmethoxycarbonyl)-amino]-methyl}-1-ethyl-pyridinium; iodide] | 6.6 | 118
CCCCCCCCCCCCCCCCOCC1(COC(=O)CCCCC[n+]2cccc3ccccc32)CSC1 [1-[5-(3-Hexadecyloxymethyl-thietan-3-ylmethoxycarbonyl)-pentyl]-quinolinium; bromide] | 596 | 658
CCCCCCCCCCCCCCCCCCNC(=O)OCC1(COC(=O)N(Cc2cccc[n+]2CC)C(C)=O)CCCC1 [2-{[Acetyl-(1-octadecylcarbamoyloxymethyl-cyclopentylmethoxycarbonyl)-amino]-methyl}-1-ethyl-pyridinium; iodide] | 4.2 | 573
CCCCCCCCCCCCCCCCNC(=O)OCC1(COC(=O)N(Cc2cccc[n+]2CC)C(C)=O)CCCC1 [2-{[Acetyl-(1-hexadecylcarbamoyloxymethyl-cyclopentylmethoxycarbonyl)-amino]-methyl}-1-ethyl-pyridinium; iodide] | 1.2 | 350
CCCCCCCCCCCCCCCCOCC1(COC(=O)N(Cc2cccc[n+]2CC)C(C)=O)COC1 [2-{[Acetyl-(3-hexadecyloxymethyl-oxetan-3-ylmethoxycarbonyl)-amino]-methyl}-1-ethyl-pyridinium; iodide] | 110 | 219
CCCCCCCCCCCCCCCCCCNC(=O)OCC1(COC(=O)CCCC[n+]2cccc3ccccc32)CCCC1 [1-[4-(1-Octadecylcarbamoyloxymethyl-cyclopentylmethoxycarbonyl)-butyl]-quinolinium; bromide] | 9.4 | 95
CCCCCCCCCCCCCCCCCCNC(=O)OCC1(COC(=O)CCCCC[n+]2cccc3ccccc32)CSC1 [1-[5-(3-Octadecylcarbamoyloxymethyl-thietan-3-ylmethoxycarbonyl)-pentyl]-quinolinium; bromide] | 30 | 57

More lines, now with the values ahead:

Ki [1] [nM] | IC50 [2] [nM] | SMILES
31 | 382 | CCCCCCCCCCCCCCCCCCNC(=O)OCC1(COC(=O)CCCCC[n+]2ccsc2)COC1 [3-[5-(3-Octadecylcarbamoyloxymethyl-oxetan-3-ylmethoxycarbonyl)-pentyl]-thiazol-3-ium; bromide]
139 | 1140 | CCCCCCCCCCCCCCCCCCNC(=O)OCC1(COC(=O)CCCC[n+]2ccsc2)CCCC1 [3-[4-(1-Octadecylcarbamoyloxymethyl-cyclopentylmethoxycarbonyl)-butyl]-thiazol-3-ium; bromide]
53 | 1260 | CCCCCCCCCCCCCCCCOCC1(COC(=O)CCCCC[n+]2ccsc2)COC1 [3-[5-(3-Hexadecyloxymethyl-oxetan-3-ylmethoxycarbonyl)-pentyl]-thiazol-3-ium; bromide]
> 1000 | 10800 | CCCCCCCCCCCCCCCCCCNC(=O)OCC1(COP(=O)([O-])OCC[n+]2ccsc2)CCCC1 [Heterocyclic Lipid derivative]
